These results are taken from the SangsterLogP compilation.

A word on the logD: it is lipophilicity at a set pH, counting ionised and neutral species. Read a low logD as lower lipophilicity.

Each structure is given as a SMILES string.

Data set [1] can be described thus: method code SF-AS, from DOI: 10.1246/bcsj.63.3542.
Data set [2] in a line: method code SF, from DOI: 10.1039/p29920000723.
Data set [3] can be described thus: method code SF-AS, from DOI: 10.1021/jm00197a006, PMID: 533877.
Test in data set [4]: not given
This is another data set of the same source.

Test in data set [5]: not given
The source holds these as a separate data set.

Data set [6] can be described thus: method code SF-AS, from DOI: 10.1002/ps.2780110406.
Test in data set [7]: not given
The source holds these as a separate data set.

Data set [8] is described as follows: method code SF-GLC, from DOI: 10.1016/0166-445x(88)90052-5.
Test in data set [9]: not given
This is another data set of the same source.

Data set [10] in a line: method code SF-RC, from DOI: 10.1021/es60170a013.
Test in data set [11]: not given
The source holds these as a separate data set.

Test in data set [12]: not given
This is another data set of the same source.

Test in data set [13]: not given
The source holds these as a separate data set.

Test in data set [14]: not given
This is another data set of the same source.

Test in data set [15]: not given
This is another data set of the same source.

Test in data set [16]: not given
The source holds these as a separate data set.

Test in data set [17]: not given
This is another data set of the same source.

Test in data set [18]: not given
The source holds these as a separate data set.

Data set [19] can be described thus: method code SF-AS, from DOI: 10.1248/cpb.40.925.
Test in data set [20]: not given
This is another data set of the same source.

A short description of data set [21]: method code SF, from DOI: 10.1016/0360-3016(92)90876-j, PMID: 1735696. The following applies: pH 7.4.
The nature of data set [22]: method code SF-AS, from DOI: 10.1016/0378-5173(82)90004-7. The following applies: pH 3.0.
Test in data set [23]: not given
This is another data set of the same source.

The nature of data set [24]: method code SF, from Kruglik, P.; Leschev, M.; Rakhman'ko, M.; Bubel, N.; Asratyan, V. (1991). Extraction of 1,2,4-triazole and its derivatives by organic solvents. 64(8)1721-1724.
The nature of data set [25]: method code SF, from DOI: 10.1016/0360-3016(89)90912-7, PMID: 2703384. The following applies: pH 7.4.
Data set [26] in a line: method code SF-AS, from DOI: 10.1211/0022357001777513, PMID: 11186244. To be noted: pH 7.3.
Data set [27] is described as follows: method code SF-GLC, from DOI: 10.1016/s0045-6535(02)00841-x, PMID: 12615110.
Data set [28] can be described thus: method code SF, from DOI: 10.1002/jps.2600830714, PMID: 7965679.
Data set [29] can be described thus: method code SF, from DOI: 10.1080/09553008714551831, PMID: 3497891. The following applies: pH 7.4.

For `CNc1cnccn1`, the logP in [1] was 0.56.

`N#CCCCCOC(=O)c1ccccc1` registered a logP in data set [2] of 2.05.

`CNC(=S)NCC(F)(F)C(F)(F)C(F)(F)F` gave a logP in [2] of 2.39.

`ClCCCl` displayed a logP of 1.55.

Turning to `Cc1nnc(/C=N/O)s1`, in data set [3], the logP was 0.78.

In turn, `Cc1ccc(Cl)cc1Cl` came in with a logP in [4] of 4.09.

As for `CC(C)(CO)[C@@H](O)C(=O)NCCC(=O)O`, the logP in [5] is -1.69.

Take `Clc1cc(Cl)c(Cl)c(Cl)c1`: the logP in [6] is 4.68.

As to `CCCCC1C(=O)N(c2ccccc2)N(c2ccc(O)cc2)C1=O` (stereo not drawn), the logP in data set [7] worked out at 3.04.

For `CSc1ccc(C=C2C(C)=C(CC(=O)O)c3cc(F)ccc32)cc1`, the logP in [7] came out at 4.76.

In data set [8], `ClCC1CO1` (stereo not drawn) had a logP of 0.45.

For the compound `OCC1CO1` (stereo not drawn), the logP in [8] is -0.95.

In data set [9], `Nc1ccc(Cl)cc1Cl` yielded a logP of 2.64.

In data set [10], `Oc1ccc(Cl)c(O)c1` gave a logP of 1.8.

In data set [11], `Oc1ccc(Cl)cc1Cl` returned a logP of 3.12.

`CCCC(C)=O` yielded a logP in [12] of 0.95.

Compound `Nc1c(F)cc(F)cc1F` gave a logP in data set [13] of 1.81.

`COc1cc2c(c(OC)c1OC)-c1ccc(O)c(=O)cc1[C@@H](NC(C)=O)CC2` registered a logP in data set [14] of 1.03.

As to `CC(C)n1ccc(=O)c(O)c1`, the logP in data set [15] was -0.02.

In [16], `Clc1ccc(-c2ccccc2)cc1Cl` came in with a logP of 5.11.

Turning to `CCOP(=S)(OCC)Oc1cccc(F)n1`, the logP in [6] came out at 3.51.

Take `CC(C)(C)O`: the logP in [16] was determined as 0.34.

The compound `Cc1cc(=O)n(-c2ccc(Cl)cc2)cc1C(=O)O` had a logP in [17] of 4.1.

`Brc1ccsc1Br` had a logP in data set [18] of 3.53.

As to `O=c1cc(-c2ccccc2)oc2ccc3ccccc3c12`, the logP in data set [18] stood at 4.94.

Compound `Oc1cc(Cl)c(Cl)c(Cl)c1O` showed a logP in [4] of 3.56.

In data set [9], `ClC(Cl)=C(Cl)C(Cl)=C(Cl)Cl` registered a logP of 4.74.

As for `COC(=O)c1ccc(Br)o1`, the logP in data set [19] worked out at 1.84.

The compound `ClC(Cl)Cl` showed a logP in [10] of 1.9.

In data set [20], `c1ccc2cc3c(ccc4ccccc43)cc2c1` returned a logP of 5.93.

Take `CONC(=O)CCCn1ccnc1[N+](=O)[O-]`: the logD in data set [21] is -0.74.

Take `CC(C)=CCC1(C(C)C)C(=O)NC(=O)NC1=O`: in data set [22], the pH-dependent lipophilicity (logD) came out at 2.23.

With `C=CCOCCO`, the logP in data set [23] is -0.1.

In data set [19], `COC(=O)c1cc2ccccc2o1` came in with a logP of 2.53.

Regarding `O=[N+]([O-])c1nc[nH]n1`, in data set [24], the logP was -0.41.

As for `CC(C=CC1=C(C)C=CCC1(C)C)=CC=CC(C)=CCO`, the logP in data set [5] was 7.41.

For `CC(C)COCCO`, the logP in [23] amounted to 0.75.

Consider `O=[N+]([O-])c1cn(CC(F)CO)cn1` (stereo not drawn), for which the logD in data set [25] is -0.8.

For the compound `Oc1c(O)c(Cl)c(Cl)c(Cl)c1Cl`, the logP in [4] was found to be 4.12.

`ClCc1cccc(CCl)c1` yielded a logP in [9] of 2.72.

The compound `Cc1ccc(O)cc1` came in with a logP in data set [11] of 2.03.

`OCC(O)COc1c(F)cc(-c2c3nc(c(-c4cc(F)c(OCC(O)CO)c(F)c4)c4ccc([nH]4)c(-c4cc(F)c(OCC(O)CO)c(F)c4)c4nc(c(-c5cc(F)c(OCC(O)CO)c(F)c5)c5ccc2[nH]5)C=C4)C=C3)cc1F` (stereo not drawn) returned a logD in data set [26] of 2.61.

Compound `OCc1ccccc1F` returned a logP in data set [13] of 1.3.

For the compound `OCC(O)COc1cccc(-c2c3nc(c(-c4cccc(OCC(O)CO)c4F)c4ccc([nH]4)c(-c4cccc(OCC(O)CO)c4F)c4nc(c(-c5cccc(OCC(O)CO)c5F)c5ccc2[nH]5)C=C4)C=C3)c1F` (stereo not drawn), the logD in [26] was found to be 2.65.

As to `CN(C)C(=O)c1ccccn1`, the logP in [1] is -0.45.

In [10], `ClC(Cl)C(Cl)Cl` yielded a logP of 2.39.

In the case of `Brc1ccc(Oc2ccc(Br)cc2Br)c(Br)c1`, the logP in data set [27] came to 6.81.

For the compound `BrCC1CO1` (stereo not drawn), the logP in data set [8] turned out to be 0.85.

For `ClC=C(Cl)Cl`, the logP turned out to be 2.67.

Turning to `OC1CCCCC1`, the logP in [12] amounted to 1.36.

Take `On1nc2ccccc2n1`: the logP in data set [14] is 0.69.

As to `COCC(F)Cn1cnc([N+](=O)[O-])c1` (stereo not drawn), the logD in data set [25] is -0.04.

Take `Cc1c2ccccc2c(C)c2c1ccc1ccccc12`: the logP in data set [12] came to 6.16.

In data set [22], `CC(C)=CCC1(C(C)(C)C)C(=O)NC(=O)NC1=O` displayed a logD of 2.56.

In the case of `O=NN(CCCl)C(=O)NCC(=O)O`, in data set [28], the logP was -1.25.

On to `Nc1ncc([N+](=O)[O-])s1`, for which, in [29], the logD is 0.89.

Take `O=NN(CCCl)C(=O)N[C@@H](Cc1ccccc1)C(=O)O`: in data set [28], the logP is -0.28.

Take `CCS(=O)(=O)NC(=O)CCc1ccccc1`: the logP in data set [2] worked out at 1.67.

For the compound `O=[N+]([O-])c1nccn1CC(F)CO` (stereo not drawn), in data set [25], the logD is -0.38.

As to `O=C(O)c1cc(C(F)(F)F)nc2ccccc12`, the logP in data set [17] was found to be 3.14.

As to `OCc1ccc(Br)cc1`, the logP in data set [13] amounted to 2.15.

As for `Oc1ccccc1O`, the logP in data set [11] stood at 1.1.

As for `Brc1ccc(Oc2c(Br)cc(Br)cc2Br)c(Br)c1`, the logP in data set [27] came out at 7.24.

Turning to `CC(Cl)CCl` (stereo not drawn), the logP was 1.98.

In the case of `Cc1nsc(C=NO)n1`, the logP in data set [3] was 1.29.

In turn, `Brc1cc(Br)c(Oc2cc(Br)c(Br)cc2Br)c(Br)c1` registered a logP in data set [27] of 7.82.

`Cn1ccc(=O)c(O)c1`: in data set [15], the logP is -0.7.

As for `CC1(C)C(=O)NC(=O)NC1=O`, the logD in [22] is -0.44.

`Cc1ccc(O)c(C)c1`: the logP in [16] stood at 2.48.

In the case of `CC(=O)OCC1OC(OC(C)=O)C(NC(=O)C(C)NC(=O)N(CCCl)N=O)C(OC(C)=O)C1OC(C)=O` (stereo not drawn), the logP in data set [28] came out at 0.71.

Take `O=S1CCCC1`: the logP in [7] is -0.96.

On to `Cn1cnc([N+](=O)[O-])n1`, for which the logP in [24] was -0.45.

Regarding `NC(=S)Nc1cccc2ccccc12`, the logP in data set [18] came out at 1.66.

The compound `CCCn1cnc([N+](=O)[O-])n1` had a logP in data set [24] of 0.22.

With `CN(C)C(=O)c1cnccn1`, the logP in data set [1] was -0.8.

For `COCC(O)Cn1cnc([N+](=O)[O-])n1` (stereo not drawn), in data set [29], the logD is -0.47.

For the compound `O=C(O)c1snc(Cl)c1Cl`, the logP in [17] turned out to be 1.44.

Take `CCCn1ccc(=O)c(O)c1`: the logP in [15] was -0.17.

With `COCCO`, in [23], the logP was -0.61.

In the case of `COc1ccccn1`, the logP in data set [20] came out at 1.23.

For `COCC(O)Cn1ncc([N+](=O)[O-])n1` (stereo not drawn), the logD in data set [29] was -0.1.

For `CC(=O)OCC(=O)[C@H]1CC[C@H]2[C@@H]3CCC4=CC(=O)CC[C@]4(C)[C@H]3CC[C@]12C`, the logP in data set [14] was determined as 3.08.

For `COC(=O)c1c[nH]c2ccccc12`, the logP in data set [19] stood at 2.57.

Regarding `O=C(CCCn1ccnc1[N+](=O)[O-])NO`, in data set [21], the logD is -1.11.

`NC(=O)c1ccccc1Cl` yielded a logP in data set [20] of 0.94.

In data set [5], `O=C(O)CCCC[C@@H]1SC[C@@H]2NC(=O)N[C@@H]21` gave a logP of 0.39.

In turn, `O/N=C/c1cnns1` returned a logP in data set [3] of 0.86.

As to `CCOP(=O)(NC(C)C)Oc1ccc(SC)c(C)c1` (stereo not drawn), in [6], the logP was 3.18.
